{"source": "paper PMC10057847", "about": "“Precision engineering of biological function with large-scale measurements and machine learning” (PLOS ONE, 2023)", "assay_in_all_cases": "In vivo IPTG dose-response of LacI-regulated eYFP expression from the pVER plasmid in E. coli grown in rich M9 medium at 37 °C, measured by flow cytometry and fitted to the Hill equation by Bayesian MCMC (posterior mean and SD).", "assay_type_in_all_cases": "cell-based, E. coli MG1655Δlac", "details_in_all_cases": "read-out: log_ec50 (base-10 logarithm of EC50 in μmol/L) (converted)", "key": {"pVER-IPTG-001": {"target": "T1, pVER-IPTG-001 (Escherichia coli, UniProt P03023, D130E/D267N/N333I/Q55H/T258I/V192A/Y273H)", "T1 construct": "gene lacI; LacI expressed from pVER plasmid", "T1 sequence (P03023 whole entry Q55H/D130E/V192A/T258I/D267N/Y273H/N333I)": "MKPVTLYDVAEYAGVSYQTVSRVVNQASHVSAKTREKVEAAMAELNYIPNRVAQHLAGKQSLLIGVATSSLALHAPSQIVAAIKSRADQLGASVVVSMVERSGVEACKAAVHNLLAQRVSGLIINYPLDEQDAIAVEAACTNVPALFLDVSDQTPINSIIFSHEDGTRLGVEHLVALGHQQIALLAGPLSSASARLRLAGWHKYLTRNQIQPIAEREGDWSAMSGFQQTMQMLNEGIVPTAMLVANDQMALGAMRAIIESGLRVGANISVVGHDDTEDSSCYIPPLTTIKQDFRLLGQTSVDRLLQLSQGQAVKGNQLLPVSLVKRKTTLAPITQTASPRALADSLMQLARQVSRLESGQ", "procedure": "(§1) All reported measurements were completed using E. coli strain MG1655Δlac, in which the lactose operon of E. coli strain MG1655 (ATCC #47076) was replaced with the bleomycin resistance gene from Streptoalloteichus hindustanus (Shble).\n(§2) Dose-response curves were measured with flow cytometry using E. coli MG1655Δlac transformed with variants of the pVER plasmid, described previously. The plasmid contained different variants of the lacI coding DNA sequence (CDS), as described in the text, and an expression cassette with enhanced yellow fluorescent protein (eYFP) under the control of the lactose operator (lacO). The lacI CDS was verified with Sanger sequencing for each variant.\n(§3) All cultures were grown in a rich M9 media (3 g/L KH2PO4, 6.78 g/L Na2HPO4, 0.5 g/L NaCl, 1 g/L NH4Cl, 0.1 mmol/L CaCl2, 2 mmol/L MgSO4, 4% glycerol, and 20 g/L casamino acids) supplemented with 50 μg/mL kanamycin.\n(§4) • Prepare first growth plate, with 450 μL rich M9 media in each well. • Pipette 50 μL of starter culture into each well in rows B-G of the plate (leaving rows A and H blank). • Use a E. coli containing a different lacI variant for each row. • Seal first growth plate with gas permeable membrane. • Incubate plate in plate reader for 12 h to 14 h. • Grow to stationary to provide a reproducible starting point for each measurement. • Prepare second growth plate with 490 μL in each well. • Dilution series of isopropyl-β-D-thiogalactopyranoside (IPTG): 11 columns of a 2-fold serial dilution gradient and one column with zero IPTG. • Ten minutes before the end of the incubation cycle for the first growth plate, move the second growth plate to a heated station set to 47°C. • Ten minutes at 47°C will pre-warm the media in the plate to 37°C. • De-seal the first growth plate (after completion of the stationary-phase incubation cycle). • Pipette 10 μL from each well in the first growth plate to the corresponding well in the second growth plate. • 50-fold dilution; using a 96-channel pipetting head. • Seal second growth plate with gas permeable membrane. • Incubate second growth plate in plate reader for 160 minutes. • Sufficient for approximately 10-fold increase in cell density or 3.3 doublings. • Prepare third growth plate with 450 μL in each well. • Same dilution series as in second growth plate. • Ten minutes before the end of the incubation cycle for the second growth plate, move the third growth plate to a heated station set to 47°C. • De-seal the second growth plate (after completion of the 160 minute incubation cycle). • Pipette 50 μL from each well in the second growth plate to the corresponding well in the third growth plate. • 10-fold dilution; using a 96-channel pipetting head. • Seal third growth plate with gas permeable membrane. • Incubate third growth plate in plate reader for 160 minutes. • Prepare flow cytometry sample plate (round-bottom 96-well plate, Falcon, 351177). • Each well in rows B-G: 195 μL 1x PBS with 170 μg/mL chloramphenicol (Fisher BioReagents, cat. #BP904-100). • Rows A and H: PBS blanks, focusing fluid blanks, and space for calibration bead sample • At the end of the incubation cycle for the third growth plate, pipette 5 μL from each well to the corresponding well in the flow cytometry sample plate.\n(§5) Flow cytometry samples were measured with an Attune NxT flow cytometer equipped with a 96-well plate autosampler using a 488 nm excitation laser and a 530 nm ± 15 nm bandpass emission filter. Blank samples were measured with each batch of cell measurements, and an automated gating algorithm was used to discriminate cell events from non-cell events. Fluorescence calibration beads (Spherotech, part no. RCP-30-20A) were also measured with each batch of samples to facilitate calibration of flow cytometry data to molecules of equivalent fluorescein (MEF). […]"}, "pVER-IPTG-002(V136E)": {"target": "T2, pVER-IPTG-002(V136E) (Escherichia coli, UniProt P03023, M254I/S158R/T154I/V136E/V238D/V264I/V96E)", "T2 construct": "gene lacI; LacI expressed from pVER plasmid", "T2 sequence (P03023 whole entry V96E/V136E/T154I/S158R/V238D/M254I/V264I)": "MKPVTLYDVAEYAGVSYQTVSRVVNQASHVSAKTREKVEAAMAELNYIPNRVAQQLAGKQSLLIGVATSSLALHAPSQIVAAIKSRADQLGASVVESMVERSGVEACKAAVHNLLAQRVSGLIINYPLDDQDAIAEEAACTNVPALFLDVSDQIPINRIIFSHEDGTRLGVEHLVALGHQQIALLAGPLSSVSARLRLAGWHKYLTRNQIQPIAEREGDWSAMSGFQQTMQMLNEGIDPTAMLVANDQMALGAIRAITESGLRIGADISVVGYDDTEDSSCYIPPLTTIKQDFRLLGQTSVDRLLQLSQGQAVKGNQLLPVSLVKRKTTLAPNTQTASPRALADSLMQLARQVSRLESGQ", "procedure": "as §1, §2, §3, §4, §5"}, "pVER-IPTG-004(S70R)": {"target": "T3, pVER-IPTG-004(S70R) (Escherichia coli, UniProt P03023, A87P/E357G/S70R/V301M)", "T3 construct": "gene lacI; LacI expressed from pVER plasmid", "T3 sequence (P03023 whole entry S70R/A87P/V301M/E357G)": "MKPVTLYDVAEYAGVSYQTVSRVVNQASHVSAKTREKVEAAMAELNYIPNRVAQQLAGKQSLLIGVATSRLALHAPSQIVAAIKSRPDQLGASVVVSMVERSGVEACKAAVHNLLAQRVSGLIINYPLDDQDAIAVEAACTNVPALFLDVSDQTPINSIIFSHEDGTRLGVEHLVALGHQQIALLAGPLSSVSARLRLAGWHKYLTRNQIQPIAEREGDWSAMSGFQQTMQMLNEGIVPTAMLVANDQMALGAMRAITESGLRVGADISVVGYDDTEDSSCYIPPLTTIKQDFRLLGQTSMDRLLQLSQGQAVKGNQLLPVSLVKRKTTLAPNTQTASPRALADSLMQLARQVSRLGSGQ", "procedure": "as §1, §2, §3, §4, §5"}, "pVER-IPTG-004(V136E)": {"target": "T4, pVER-IPTG-004(V136E) (Escherichia coli, UniProt P03023, A87P/E357G/V136E/V301M)", "T4 construct": "gene lacI; LacI expressed from pVER plasmid", "T4 sequence (P03023 whole entry A87P/V136E/V301M/E357G)": "as the sequence (P03023 whole entry S70R/A87P/V301M/E357G) above, with R70S, V136E counted along it", "procedure": "as §1, §2, §3, §4, §5"}, "pVER-IPTG-005": {"target": "T5, pVER-IPTG-005 (Escherichia coli, UniProt P03023, A176S/E172D/F226Y/G91D/R101G/S158C/T167M/T276S/T299A/V94A)", "T5 construct": "gene lacI; LacI expressed from pVER plasmid", "T5 sequence (P03023 whole entry G91D/V94A/R101G/S158C/T167M/E172D/A176S/F226Y/T276S/T299A)": "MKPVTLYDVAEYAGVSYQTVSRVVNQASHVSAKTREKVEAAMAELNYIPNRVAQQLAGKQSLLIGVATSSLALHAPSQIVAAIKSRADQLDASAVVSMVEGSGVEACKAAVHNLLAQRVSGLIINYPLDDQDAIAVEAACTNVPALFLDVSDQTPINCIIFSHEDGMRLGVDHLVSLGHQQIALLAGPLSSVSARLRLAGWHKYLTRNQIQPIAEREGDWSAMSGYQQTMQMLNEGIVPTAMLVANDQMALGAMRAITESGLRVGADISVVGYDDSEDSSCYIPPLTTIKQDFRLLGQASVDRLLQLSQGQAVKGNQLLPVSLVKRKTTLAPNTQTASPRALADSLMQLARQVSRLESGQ", "procedure": "as §1, §2, §3, §4, §5"}, "pVER-IPTG-006": {"target": "T6, pVER-IPTG-006 (Escherichia coli, UniProt P03023, A241V/A341T/D88Y/L305M/L319F/L346S/N246S/P339T)", "T6 construct": "gene lacI; LacI expressed from pVER plasmid", "T6 sequence (P03023 whole entry D88Y/A241V/N246S/L305M/L319F/P339T/A341T/L346S)": "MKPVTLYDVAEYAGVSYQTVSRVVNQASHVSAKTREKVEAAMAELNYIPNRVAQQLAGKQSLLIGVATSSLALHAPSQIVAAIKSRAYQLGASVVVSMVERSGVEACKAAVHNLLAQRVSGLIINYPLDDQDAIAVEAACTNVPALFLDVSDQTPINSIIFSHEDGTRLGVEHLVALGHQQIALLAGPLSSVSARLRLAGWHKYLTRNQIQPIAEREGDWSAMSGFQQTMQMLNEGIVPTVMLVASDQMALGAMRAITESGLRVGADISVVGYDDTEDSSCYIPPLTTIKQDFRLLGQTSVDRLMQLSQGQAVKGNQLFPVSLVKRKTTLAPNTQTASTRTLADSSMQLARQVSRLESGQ", "procedure": "as §1, §2, §3, §4, §5"}, "pVER-IPTG-007": {"target": "T7, pVER-IPTG-007 (Escherichia coli, UniProt P03023, A199V/D88Y/K84E/L342M/L90P/Q153L/R351P/S358R)", "T7 construct": "gene lacI; LacI expressed from pVER plasmid", "T7 sequence (P03023 whole entry K84E/D88Y/L90P/Q153L/A199V/L342M/R351P/S358R)": "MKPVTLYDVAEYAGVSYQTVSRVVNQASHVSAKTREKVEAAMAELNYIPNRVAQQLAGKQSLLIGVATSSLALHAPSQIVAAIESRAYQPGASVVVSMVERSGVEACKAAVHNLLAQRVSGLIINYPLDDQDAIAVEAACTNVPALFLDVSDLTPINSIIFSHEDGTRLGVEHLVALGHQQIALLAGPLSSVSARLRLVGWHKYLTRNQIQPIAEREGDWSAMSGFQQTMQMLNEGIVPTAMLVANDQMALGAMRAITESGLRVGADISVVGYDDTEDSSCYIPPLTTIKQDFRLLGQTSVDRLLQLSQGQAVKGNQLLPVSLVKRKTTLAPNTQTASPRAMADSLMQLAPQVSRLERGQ", "procedure": "as §1, §2, §3, §4, §5"}, "[1]": {"target": "T8, pVER-IPTG-075 (also pVER-IPTG-138) (Escherichia coli, UniProt P03023, A81S/E100K/L148V/Q60R/S221N/S28G/T34M/V271L)", "T8 construct": "gene lacI; LacI expressed from pVER plasmid", "T8 sequence (P03023 whole entry S28G/T34M/Q60R/A81S/E100K/L148V/S221N/V271L)": "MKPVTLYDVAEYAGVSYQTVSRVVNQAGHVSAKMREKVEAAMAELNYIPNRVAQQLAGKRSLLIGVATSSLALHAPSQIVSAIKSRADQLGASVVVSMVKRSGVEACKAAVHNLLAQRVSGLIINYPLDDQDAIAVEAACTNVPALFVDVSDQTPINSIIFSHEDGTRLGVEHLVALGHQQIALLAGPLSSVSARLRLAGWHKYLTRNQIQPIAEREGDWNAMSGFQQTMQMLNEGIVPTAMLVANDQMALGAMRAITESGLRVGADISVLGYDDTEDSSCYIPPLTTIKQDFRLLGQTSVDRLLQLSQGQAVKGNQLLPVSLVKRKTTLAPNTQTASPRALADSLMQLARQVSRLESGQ", "procedure": "as §1, §2, §3, §4, §5"}, "pVER-IPTG-076": {"target": "T9, pVER-IPTG-076 (Escherichia coli, UniProt P03023, A337S/L198Q/S102R/S260F/S93N/V99E)", "T9 construct": "gene lacI; LacI expressed from pVER plasmid", "T9 sequence (P03023 whole entry S93N/V99E/S102R/L198Q/S260F/A337S)": "as the sequence (P03023 whole entry S70R/A87P/V301M/E357G) above, with R70S, P87A, S93N, V99E, S102R, L198Q, S260F, M301V, A337S, G357E counted along it", "procedure": "as §1, §2, §3, §4, §5"}, "pVER-IPTG-079": {"target": "T10, pVER-IPTG-079 (Escherichia coli, UniProt P03023, A116T/S190C/T141I/V99E)", "T10 construct": "gene lacI; LacI expressed from pVER plasmid", "T10 sequence (P03023 whole entry V99E/A116T/T141I/S190C)": "as the sequence (P03023 whole entry S70R/A87P/V301M/E357G) above, with R70S, P87A, V99E, A116T, T141I, S190C, M301V, G357E counted along it", "procedure": "as §1, §2, §3, §4, §5"}, "pVER-IPTG-081": {"target": "T11, pVER-IPTG-081 (Escherichia coli, UniProt P03023, M347V/P285S/S308P/V301M)", "T11 construct": "gene lacI; LacI expressed from pVER plasmid", "T11 sequence (P03023 whole entry P285S/V301M/S308P/M347V)": "as the sequence (P03023 whole entry S70R/A87P/V301M/E357G) above, with R70S, P87A, P285S, S308P, M347V, G357E counted along it", "procedure": "as §1, §2, §3, §4, §5"}, "pVER-IPTG-082": {"target": "T12, pVER-IPTG-082 (Escherichia coli, UniProt P03023, G200A/Q209R/Q317L/R263H/S190C/V94M)", "T12 construct": "gene lacI; LacI expressed from pVER plasmid", "T12 sequence (P03023 whole entry V94M/S190C/G200A/Q209R/R263H/Q317L)": "as the sequence (P03023 whole entry S70R/A87P/V301M/E357G) above, with R70S, P87A, V94M, S190C, G200A, Q209R, R263H, M301V, Q317L, G357E counted along it", "procedure": "as §1, §2, §3, §4, §5"}}, "note": "Several values for one entry are separate records, joined by “and”; a condition that tells them apart may be missing. Equal values may be shown once."}
{"smiles": "CC(C)S[C@@H]1O[C@H](CO)[C@H](O)[C@H](O)[C@H]1O", "note": "[IPTG, isopropyl-β-D-thiogalactopyranoside]", "values": [{"measurement": "EC50", "setting": "pVER-IPTG-001", "value": 774, "unit": "µmol/L"}, {"measurement": "EC50", "setting": "pVER-IPTG-002(V136E)", "value": 464000, "unit": "µmol/L"}, {"measurement": "EC50", "setting": "pVER-IPTG-004(S70R)", "value": 3890, "unit": "µmol/L"}, {"measurement": "EC50", "setting": "pVER-IPTG-004(V136E)", "value": 421000, "unit": "µmol/L"}, {"measurement": "EC50", "setting": "pVER-IPTG-005", "value": 203, "unit": "µmol/L"}, {"measurement": "EC50", "setting": "pVER-IPTG-006", "value": 540, "unit": "µmol/L"}, {"measurement": "EC50", "setting": "pVER-IPTG-007", "value": 29.4, "unit": "µmol/L"}, {"measurement": "EC50", "setting": "[1]", "value": "3 µmol/L and 2.99 µmol/L"}, {"measurement": "EC50", "setting": "pVER-IPTG-076", "value": 4.31, "unit": "µmol/L"}, {"measurement": "EC50", "setting": "pVER-IPTG-079", "value": 7.24, "unit": "µmol/L"}, {"measurement": "EC50", "setting": "pVER-IPTG-081", "value": 8.46, "unit": "µmol/L"}, {"measurement": "EC50", "setting": "pVER-IPTG-082", "value": 27.8, "unit": "µmol/L"}]}
